In US11155514B1, “Pleuromulin acitretin ester with antibacterial activity and a method of preparing the same” (SHAANXI UNIVERSITY OF SCIENCE AND TECHNOLOGY, priority 2020, dated 2021):
Converted amounts (≈) assume the structure as drawn. Where two headings read alike, the source gives them in different places.

What was measured:
Format in all cases: cell-based
[1] = test system: multidrug-resistant Pseudomonas aeruginosa MDR-PA 18-202; assay: MIC by microbroth dilution, MDR-PA 18-202
Description: (§1) The minimal inhibitory concentration (MIC) of the compounds was determined by a microbroth dilution method with gentamicin, cefazolin sodium and ceftriaxone sodium as positive controls.
(§2) The experimental strains included methicillin-resistant Gram-positive bacteria: methicillin-resistant Staphylococcus aureus MRSA 18-222, 18-575; multiple drug-resistant Gram-negative bacteria: […], multidrug-resistant Pseudomonas aeruginosa MDR-PA 18-174,18-202, carbapenem-resistant Acinetobacter baumannii CR-AB 18-183,18-560. All the experimental strains were donated by Huashan Hospital affiliated to Fudan University (Institute of antibiotics, Fudan University) and used after routine identification.
(§3) Preparation of Test Strains:
(§4) Preparation of MHB medium: 20.0 g MHB medium was added to 1 L distilled water, boiled until completely dissolved, packed in conical bottles and sterilized at 121° C. for 15 min.
(§5) The experimental strain was cultured to the logarithmic growth phase: under aseptic condition, the experimental strain was inoculated into 100 mL MHB medium and incubated in a constant temperature and humidity incubator at 37° C. for 20-22 hours.
(§6) Preparation of storage solution: weigh the sample to be tested, dissolve it with 1% DMSO solution, prepare a storage solution with a concentration of 2560 μg/mL, weigh a positive reference substance, dissolve it with aseptic distilled water, and configure a storage solution with a concentration of 2560 μg/mL.
(§7) Preparation of bacterial suspension: under aseptic condition, the experimental strains cultured to logarithmic growth phase were adjusted to 0.5 MCF turbidity standard with MHB medium and diluted according to 1:10, and the bacterial suspension with concentration of 10^6 CFU/mL was prepared for standby.
(§8) Stock solution dilution and inoculation of experimental strains: under aseptic conditions, dilute the stock solution to a solution of 256 μg/mL. Take a sterile 96-well plate, add 100 μL of MHB medium to each well except for the first and second wells; add 100 μL of positive control solution to the first well, and add 100 μL of compound sample solution to the second and third wells; Mix the sample solution in the 3 wells with the medium, and then pipet 100 μL to the 4th well, and then pipet 100 μL to the 5th well after mixing, and then dilute to the 9th well in a series of times, and draw 100 μL from the 9th well and discard, the 10th well is a growth control without drugs; then, add 100 μL of the above-prepared bacterial suspension to each well to make the final bacterial concentration of each well 5×10^5 CFU/mL; so far, the positive control concentration is 128 μg/mL, the concentration of the sample solution is 128, 64, 32, 16, 8, 4, 2, 1 μg/mL.
(§9) Incubation: Cover the 96-well plate inoculated with the experimental strains, and incubate in a constant temperature and humidity box at 37° C. for 20-22 hours.
(§10) In FIGS. 1-2, the ten wells represent ten groups, from left to right, positive, 128 μg/mL, 64 μg/mL, 32 μg/mL, 16 μg/mL, 8 μg/mL, 4 μg/mL, 2 μg/mL, 1 μg/mL, Negative.

[2] = test system: vancomycin-resistant enterococci VRE 18-94; assay: MIC by microbroth dilution, VRE 18-94; conditions: for MIC: Enterococcus, read-out: Minimum bacteriostatic concentration (MIC)
Description: as §1, §2, §3, §4, §5, §6, §7, §8, §9

[3] = test system: carbapenem-resistant Acinetobacter baumannii CR-AB 18-560; assay: MIC by microbroth dilution, CR-AB 18-560; conditions: for MIC: Acinetobacter baumannii, read-out: Minimum bacteriostatic concentration (MIC)
Description: as §1, §2, §3, §4, §5, §6, §7, §8, §9

[4] = test system: vancomycin-resistant enterococci VRE 18-80; assay: MIC by microbroth dilution, VRE 18-80; conditions: for MIC: Enterococcus, read-out: Minimum bacteriostatic concentration (MIC)
Description: as §1, §2, §3, §4, §5, §6, §7, §8, §9

[5] = test system: methicillin-resistant Staphylococcus aureus MRSA 18-575; assay: MIC by microbroth dilution, MRSA 18-575
Description: as §1, §2, §3, §4, §5, §6, §7, §8, §9, §10

[6] = test system: methicillin-resistant Staphylococcus aureus MRSA 18-222; assay: MIC by microbroth dilution, MRSA 18-222; conditions: for MIC: Staphylococcus aureus, read-out: Minimum bacteriostatic concentration (MIC)
Description: as §1, §2, §3, §4, §5, §6, §7, §8, §9

[7] = test system: multidrug-resistant Pseudomonas aeruginosa MDR-PA 18-174; assay: MIC by microbroth dilution, MDR-PA 18-174; conditions: for MIC: Pseudomonas aeruginosa, read-out: Minimum bacteriostatic concentration (MIC)
Description: as §1, §2, §3, §4, §5, §6, §7, §8, §9

drug-resistant bacteria = assay: Antibacterial activity test, summary over all experimental strains; conditions: text summary of FIG. 1-2 and Table 1
Description: as §1, §2, §3, §4
The experimental strain was cultured to the logarithmic growth phase: under aseptic condition, the experimental strain was inoculated into 100 mL MHB medium and incubated in a constant temperature and humidity incubator at 37° C. for 20-22 hours. […]

[8] = test system: carbapenem-resistant Acinetobacter baumannii CR-AB 18-183; assay: MIC by microbroth dilution, CR-AB 18-183; conditions: for MIC: Acinetobacter baumannii, read-out: Minimum bacteriostatic concentration (MIC)
Description: as §1, §2, §3, §4, §5, §6, §7, §8, §9

[9] = Pseudomonas aeruginosa, strain MDR-PA 18-202, 37° C., 20-22 hours, read-out: Minimum bacteriostatic concentration (MIC)
[10] = strain VRE 18-94, 37° C., 20-22 hours
[11] = strain CR-AB 18-560, 37° C., 20-22 hours
[12] = strain VRE 18-80, 37° C., 20-22 hours
[13] = Staphylococcus aureus, strain MRSA 18-575, 37° C., 20-22 hours, read-out: Minimum bacteriostatic concentration (MIC)
[14] = strain MRSA 18-222, 37° C., 20-22 hours
[15] = strain MDR-PA 18-174, 37° C., 20-22 hours
[16] = strain CR-AB 18-183, 37° C., 20-22 hours

| Compound | inhibitory effect on drug-resistant bacteria (drug-resistant bacteria) | MIC [1, 9] [µg/mL] | MIC [2, 10] [µg/mL] | MIC [3, 11] [µg/mL] | MIC [4, 12] [µg/mL] | MIC [5, 13] [µg/mL] | MIC [6, 14] [µg/mL] | MIC [7, 15] [µg/mL] | MIC [8, 16] [µg/mL] | also measured |
| --- | --- | --- | --- | --- | --- | --- | --- | --- | --- | --- |
| COc1cc(C)c(/C=C/C(C)=C/C=C/C(C)=C/C(=O)O)c(C)c1C [Acitretin] | no inhibitory effect | – | – | – | – | – | – | – | – | MIC ([1]; Pseudomonas aeruginosa, read-out: Minimum bacteriostatic concentration (MIC)): > 128 µg/mL; MIC ([2]; VRE): > 128 µg/mL; MIC [3]: > 128 µg/mL; MIC ([4]; VRE): > 128 µg/mL; MIC ([5]; Staphylococcus aureus, MRSA, read-out: Minimum bacteriostatic concentration (MIC)): > 128 µg/mL; MIC ([6]; MRSA): > 128 µg/mL; MIC [7]: > 128 µg/mL; MIC [8]: > 128 µg/mL |
| C=C[C@]1(C)C[C@@H](OC(=O)COC(=O)/C=C(C)/C=C/C=C(C)/C=C/c2c(C)cc(OC)c(C)c2C)[C@]2(C)CC[C@@H](C)C3(CCC(=O)[C@H]32)[C@@H](C)[C@@H]1O [Pleuromulin acitretinester, (2E,4E,6E,8E)-2-(((4R,5S,6S,8R,9R,9aR,12R)-5-hydroxy-4,6,9,12-tetramethyl-1-oxo-6-vinyldecahydro-3a,9-propanocyclopenta[8]annulen-8-yl)oxy)-2-oxoethyl 9-(4-methoxy-2,3,6-trimethylphenyl)-3,7-dimethylnona-2,4,6,8-tetraenoate] | – | 128 (≈ 186 µM) | > 128 | > 128 | > 128 | 64 (≈ 93.2 µM) | > 128 | > 128 | > 128 | MIC ([1]; multi-drug resistant Pseudomonas aeruginosa MDR-PA, strain not named, read-out: MIC): 128 µg/mL (≈ 186 µM); MIC ([5]; multi-drug resistant Staphylococcus aureus MRSA, strain not named, read-out: MIC): 64 µg/mL (≈ 93.2 µM) |
| Gentamicin | – | – | – | – | – | – | – | – | – | Minimum bacteriostatic concentration (MIC) ([1]; strain MDR-PA 18-202, 37° C., 20-22 hours): 0.0625 µg/mL; Minimum bacteriostatic concentration (MIC) [2, 10]: >128 µg/mL; Minimum bacteriostatic concentration (MIC) [3, 11]: >128 µg/mL; Minimum bacteriostatic concentration (MIC) [4, 12]: 0.0625 µg/mL; Minimum bacteriostatic concentration (MIC) ([5]; strain MRSA 18-575, 37° C., 20-22 hours): 2 µg/mL; Minimum bacteriostatic concentration (MIC) [6, 14]: 128 µg/mL; Minimum bacteriostatic concentration (MIC) [7, 15]: 0.0625 µg/mL; Minimum bacteriostatic concentration (MIC) [8, 16]: >128 µg/mL |
| Cc1nnc(SCC2=C(C(=O)O)N3C(=O)[C@@H](NC(=O)Cn4cnnn4)[C@H]3SC2)s1 [Cefazolin sodium] | – | 128 | > 128 | > 128 | 32 | > 128 | > 128 | 8 | > 128 | – |
| C=C[C@]1(C)C[C@@H](OC(=O)CO)[C@]2(C)[C@H](C)CC[C@]3(CCC(=O)[C@H]32)[C@@H](C)[C@@H]1O [Pleuromulin] | no inhibitory effect | > 128 | > 128 | > 128 | > 128 | > 128 | > 128 | > 128 | > 128 | – |
| CO/N=C(\C(=O)N[C@@H]1C(=O)N2C(C(=O)O)=C(CSc3nc(=O)c(=O)[nH]n3C)CS[C@H]12)c1csc(N)n1 [Ceftriaxone sodium] | – | 16 | > 128 | > 128 | 8 | > 128 | > 128 | 128 | > 128 | – |
